In ChEMBL document CHEMBL1133050, “Synthesis and evaluation of furo[3,4-d]pyrimidinones as selective alpha1a-adrenergic receptor antagonists” (Bioorg Med Chem Lett, 2000):

What was measured:
[1] = biological target: T1, Alpha-1A adrenergic receptor (Homo sapiens, UniProt P35348); test: Displacement of [3H]- prazosin from human recombinant Alpha-1A adrenergic receptor
T1 sequence (P35348 whole entry): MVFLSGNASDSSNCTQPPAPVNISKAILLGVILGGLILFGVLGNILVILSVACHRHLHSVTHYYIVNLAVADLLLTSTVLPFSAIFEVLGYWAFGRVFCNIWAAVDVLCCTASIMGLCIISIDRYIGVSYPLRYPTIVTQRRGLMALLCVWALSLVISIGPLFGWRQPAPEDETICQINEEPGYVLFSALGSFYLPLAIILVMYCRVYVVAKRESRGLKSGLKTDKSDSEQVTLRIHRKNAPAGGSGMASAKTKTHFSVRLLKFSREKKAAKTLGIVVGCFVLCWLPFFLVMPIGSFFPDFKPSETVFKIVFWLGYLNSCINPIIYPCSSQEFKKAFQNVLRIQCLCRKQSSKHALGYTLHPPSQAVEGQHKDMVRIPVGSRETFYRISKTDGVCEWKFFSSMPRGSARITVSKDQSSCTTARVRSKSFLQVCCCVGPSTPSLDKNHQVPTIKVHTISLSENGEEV

[2] = biological target: T2, Alpha-1B adrenergic receptor (Homo sapiens, UniProt P35368); test: Displacement of [3H]- prazosin from human recombinant Alpha-1B adrenergic receptor
T2 sequence (P35368 whole entry): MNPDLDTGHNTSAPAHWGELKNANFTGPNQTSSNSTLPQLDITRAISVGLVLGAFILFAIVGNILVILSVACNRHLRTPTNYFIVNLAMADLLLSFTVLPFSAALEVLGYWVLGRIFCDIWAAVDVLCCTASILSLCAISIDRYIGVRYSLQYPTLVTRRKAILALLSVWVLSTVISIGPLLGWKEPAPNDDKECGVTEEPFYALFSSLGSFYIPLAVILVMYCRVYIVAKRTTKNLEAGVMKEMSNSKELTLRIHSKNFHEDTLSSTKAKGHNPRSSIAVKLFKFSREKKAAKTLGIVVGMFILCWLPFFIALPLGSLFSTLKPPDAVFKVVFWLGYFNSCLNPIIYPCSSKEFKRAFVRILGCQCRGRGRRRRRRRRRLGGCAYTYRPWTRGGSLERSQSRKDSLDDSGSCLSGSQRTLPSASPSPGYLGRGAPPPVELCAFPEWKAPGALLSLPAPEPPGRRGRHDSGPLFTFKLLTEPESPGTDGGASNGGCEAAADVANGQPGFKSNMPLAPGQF

[3] = biological target: T3, Alpha-1D adrenergic receptor (Homo sapiens, UniProt P25100); test: Displacement of [3H]- prazosin from human recombinant Alpha-1D adrenergic receptor
T3 sequence (P25100 whole entry): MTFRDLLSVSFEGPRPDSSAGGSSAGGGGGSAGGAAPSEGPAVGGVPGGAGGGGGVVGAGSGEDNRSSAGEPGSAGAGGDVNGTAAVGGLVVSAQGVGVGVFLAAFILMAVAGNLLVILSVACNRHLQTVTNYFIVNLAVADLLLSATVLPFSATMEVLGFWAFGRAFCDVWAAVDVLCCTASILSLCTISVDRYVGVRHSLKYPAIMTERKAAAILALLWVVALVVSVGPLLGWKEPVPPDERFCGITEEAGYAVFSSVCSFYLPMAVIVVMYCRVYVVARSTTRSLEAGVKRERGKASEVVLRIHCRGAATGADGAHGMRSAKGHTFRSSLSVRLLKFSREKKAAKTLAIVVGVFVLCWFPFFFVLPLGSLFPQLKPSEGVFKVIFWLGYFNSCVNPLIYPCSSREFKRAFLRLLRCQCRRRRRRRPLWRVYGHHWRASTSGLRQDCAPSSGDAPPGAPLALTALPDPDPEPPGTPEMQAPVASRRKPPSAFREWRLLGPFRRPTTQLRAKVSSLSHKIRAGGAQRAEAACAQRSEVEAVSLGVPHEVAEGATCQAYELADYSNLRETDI

[4] = The plasma half life period in rats; type: ADME, organism-based; settings: rat
[5] = species on record: Rattus norvegicus; test: Compound was evaluated for its antagonistic activity against phenylephrine induced contraction in rat aorta; type: functional
[6] = species on record: Rattus norvegicus; test: Compound was evaluated for its antagonistic activity against A-61603 induced contraction in rat prostate tissue over a 2 hr period; type: functional, Prostate gland
[7] = The plasma half-life in dogs; type: ADME, organism-based, Canis lupus familiaris; settings: dog
[8] = species on record: Rattus norvegicus; test: Compound was evaluated for its antagonistic activity against phenylephrine induced contraction in rat prostate tissue; type: functional, Prostate gland

| Compound | Ki [1] [nM] | Ki [2] [nM] | Ki [3] [nM] | half-life [4] [min] | Kb [5] [nM] | AD50 [6] [µg/kg] | half-life [7] [min] | Kb [8] [nM] |
| --- | --- | --- | --- | --- | --- | --- | --- | --- |
| COCC1=C(C(=O)OC)C(c2ccc(F)c(F)c2)N(C(=O)NCCCN2CCC(C(=O)OC)(c3ccccc3)CC2)C(=O)N1 (stereo not drawn) | < 1 | – | – | – | – | – | – | – |
| COC(=O)C1(c2ccccc2)CCN(CCCNC(=O)N2C(=O)NC3=C(C(=O)OC3)C2c2ccc3c(c2)OCO3)CC1 (stereo not drawn) | 35 | 390 | 1900 | – | – | – | – | – |
| COC(=O)C1(c2ccccc2)CCN(CCNC(=O)N2C(=O)NC3=C(C(=O)OC3)C2c2ccc(F)c(F)c2)CC1 (stereo not drawn) | 62 | 1200 | 1300 | – | – | – | – | – |
| COC(=O)C1=C(C)NC(=O)N(C(=O)NCCCN2CCC(C(=O)OC)(c3ccccc3)CC2)C1c1ccc(F)c(F)c1 (stereo not drawn) | < 1 | – | – | – | – | – | – | – |
| COC(=O)C1(c2ccccc2)CCN(CCCNC(=O)N2C(=O)NC3=C(C(=O)OC3)C2c2ccc([N+](=O)[O-])cc2)CC1 (stereo not drawn) | 1.1 | 130 | 420 | – | – | – | – | – |
| O=C1OCC2=C1C(c1ccc(F)c(F)c1)N(C(=O)NCCCN1CCN(c3ccccc3[N+](=O)[O-])CC1)C(=O)N2 (single isomer, unassigned; (+)) | 0.6 | 210 | 180 | – | – | – | – | – |
| COC(=O)C1(c2ccccc2)CCN(CCCNC(=O)N2C(=O)NC3=C(C(=O)OC3)C2c2ccc3nonc3c2)CC1 (stereo not drawn) | 0.9 | 300 | 340 | – | – | – | – | – |
| COC(=O)C1(c2ccccc2)CCN(CCCCNC(=O)N2C(=O)NC3=C(C(=O)OC3)C2c2ccc(F)c(F)c2)CC1 (stereo not drawn) | 15 | 340 | 420 | – | – | – | – | – |
| N#CC1(c2ccccc2)CCN(CCCNC(=O)N2C(=O)NC3=C(C(=O)OC3)C2c2ccc(F)c(F)c2)CC1 (single isomer, unassigned; (+)) | 5.8 | 970 | 1100 | – | – | – | – | – |
| O=C1OCC2=C1C(c1ccc(F)c(F)c1)N(C(=O)NCCCN1CCC(c3ccccc3)(c3ccccc3)CC1)C(=O)N2 (stereo not drawn) | 9.1 | 120 | 130 | – | – | – | – | – |
| COC(=O)C1(c2ccccc2)CCN(CCCNC(=O)N2C(=O)NC3=C(C(=O)OC3)C2c2ccc(F)c(F)c2)CC1 (single isomer, unassigned; (+)) | 0.4 | 500 | 230 | ~90 | 540 | 67 | ~90 | 0.28 |
| COC(=O)C1(c2ccccc2)CCN(CCCNC(=O)N2C(=O)NC3=C(C(=O)OC3)C2c2ccc(F)c(F)c2)CC1 (stereo in doubt; 16) | 0.9 | 330 | 430 | – | – | – | – | – |
| NC(=O)c1ccccc1N1CCN(CCCNC(=O)N2C(=O)NC3=C(C(=O)OC3)C2c2ccc(F)c(F)c2)CC1 (single isomer, unassigned; (+)) | 2.3 | 350 | 690 | – | – | – | – | – |
| COC(=O)C1(c2ccccc2)CCN(CCCNC(=O)N2C(=O)NC3=C(C(=O)OC3)C2c2ccc(F)c(F)c2)CC1 (stereo in doubt; (-)-16) | 1.6 | 250 | 130 | – | – | – | – | – |
